#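 Each compound was tested at five concentrations against cells in 96-well plates for 48 hours. At the TGI there is no net growth.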
# How the values were obtained:
# Assay in all cases: NCI tumour cell line growth inhibition, 48 h
# [1] = tested on: SR leukemia
# [2] = tested on: KM12 colon
# [3] = tested on: 786-0 renal
# [4] = tested on: HCC-2998 colon
# [5] = tested on: SF-268 CNS
# [6] = tested on: UO-31 renal
# [7] = tested on: DU-145 prostate
# [8] = tested on: NCI-H460 lung
# [9] = tested on: CAKI-1 renal
# [10] = tested on: PC-3 prostate
# [11] = tested on: MALME-3M melanoma
# [12] = tested on: MDA-N
# [13] = tested on: BT-549 breast
# [14] = tested on: SK-MEL-5 melanoma
# [15] = tested on: HCT-15 colon
# [16] = tested on: NCI-H522 lung
# [17] = tested on: SW-620 colon
Structure (SMILES),TGI [1] [µM],TGI [2] [µM],TGI [3] [µM],TGI [4] [µM],TGI [5] [µM],TGI [6] [µM],TGI [7] [µM],TGI [8] [µM],TGI [9] [µM],TGI [10] [µM],TGI [11] [µM],TGI [12] [µM],TGI [13] [µM],TGI [14] [µM],TGI [15] [µM],TGI [16] [µM],TGI [17] [µM]
O=C1c2ccccc2C(=O)c2c1sc1nc3ccccc3n21,> 100,3.91,4.46,3.79,3.9,3.89,3.13,3.66,4.27,6.79,1.6,3.49,3.45,43.3,–,–,–
CN(C)c1ccc(C2=C([O-])c3cc(-[n+]4ccccc4)ccc3C2=O)cc1,> 100,> 100,> 100,> 100,> 100,> 100,> 100,> 100,> 100,> 100,> 100,> 100,> 100,> 100,> 100,> 100,> 100
COC(OC)[C@@H]1OC[C@H](n2ccc(=O)[nH]c2=O)[C@H]1O,> 100,> 100,> 100,> 100,> 100,> 100,> 100,> 100,> 100,> 100,–,> 100,> 100,> 100,> 100,–,> 100
CC(O)/C=C/C1OC(=O)CC1Nc1ccc(C=O)cc1 (stereo unspecified),73.8,> 100,> 100,> 100,> 100,> 100,> 100,> 100,–,> 100,> 100,> 100,> 100,33.5,> 100,–,> 100
CCC1=NC(N/N=C/c2ccco2)=N/C1=C\c1ccco1,> 100,> 100,> 100,> 100,> 100,> 100,> 100,> 100,> 100,> 100,> 100,> 100,> 100,> 100,> 100,> 100,> 100
C=CCc1cccc(/C(O)=C/C(=O)/C=C/c2ccccc2Cl)c1O,16,97,> 71.6,> 100,> 100,32.7,> 100,> 100,> 100,85,–,> 100,> 81.3,31.7,> 100,31,90.1
CCOC(=O)/C=C(\C(=O)OCC)n1cc(C)c(=O)n(Cc2cn(COCCOC(C)=O)nn2)c1=O,57.7,30.4,> 100,43,31.3,26.9,> 100,30.2,7.05,38.6,–,50.8,24.3,50.5,55.4,–,> 100
COc1ccc(N2C(=O)C3c4[nH]c5ccc(OC)cc5c4C4CCC(c5ccccc5)CC4C3C2=O)cc1 (stereo unspecified),2.45,> 56.3,12.2,49.5,> 46.6,> 70.6,> 100,21.7,40.6,> 75.7,30.3,> 66.7,58.7,> 100,> 100,27.4,25.1
CCOC(=O)n1ccc2c(C(=O)OC)c(C(=O)OC)cc(/C(=C/C(=O)OC)C(=O)OC)c21,> 100,> 100,> 100,> 100,> 100,> 100,> 100,> 100,> 100,> 100,> 100,> 100,> 100,> 100,–,> 100,> 100
O=C(/C=C/c1ccc(O)c(O)c1)O[C@H]1CCCC[C@@H]1OC(=O)/C=C/c1ccc(O)c(O)c1,> 100,73.3,46,33.7,38.8,27.8,41.8,> 100,> 100,> 100,32.6,26.5,63.6,21.4,35.7,20.8,19.5
COC(=O)C(Cc1ccccc1)NP(=O)(O)OCC1OC(n2ccc(N)nc2=O)C(O)C1O (stereo unspecified),> 100,> 100,> 100,> 100,> 100,> 100,> 100,> 100,> 100,> 100,> 100,> 100,> 100,> 100,> 100,> 100,> 100
CNc1ccc(Cl)cc1C(=O)N1CCC[C@H]1CO,> 100,> 100,> 100,> 100,> 100,> 100,> 100,> 100,> 100,> 100,> 100,> 100,> 100,–,> 100,> 100,> 100
CC(=S)NC=C(C(N)=O)C(N)=O,> 100,> 100,> 100,> 100,> 100,–,> 100,–,> 100,> 100,> 100,> 100,> 100,> 100,> 100,> 100,> 100
O=C(c1ccccc1)N1CCC(Nc2cccnc2)O1 (stereo unspecified),> 100,> 100,> 100,> 100,> 100,> 100,> 100,> 100,–,> 100,> 100,> 100,> 100,> 100,> 100,–,> 100
CCOC(=O)COc1cc(-c2ccccc2)nc2cc(F)ccc12,> 100,> 100,> 100,> 100,> 100,–,> 100,–,> 100,> 100,> 100,> 100,> 100,> 100,> 100,–,> 100
